Read-outs that look alike come from different tables or passages of the source.
Columns and labels:
OVCAR-8 = assay: SRB 48 h growth assay, Ovarian OVCAR-8; assay type: cell-based, human; conditions: OVCAR-8, Ovarian
CCRF-CEM = assay: SRB 48 h growth assay, Leukemia CCRF-CEM; assay type: cell-based, human
KM12 = assay: SRB 48 h growth assay, Colon KM12; assay type: cell-based, human
HCT-116 = assay: SRB 48 h growth assay, Colon HCT-116; assay type: cell-based, human; conditions: Homo sapiens, HCT-116, Colon
UO-31 = assay: SRB 48 h growth assay, Renal UO-31; assay type: cell-based, human; conditions: UO-31, Renal
SK-MEL-28 = assay: SRB 48 h growth assay, Melanoma SK-MEL-28; assay type: cell-based, human; conditions: SK-MEL-28, Melanoma
[1] = system: seven ovarian cancer cell lines (IGROV1, OVCAR-3, OVCAR-4, OVCAR-5, OVCAR-8, NCI/ADR-RES and SK-OV-3); assay: in vitro anticancer activity, ovarian panel; assay type: cell-based; conditions: Homo sapiens, exposure at least 48 h, read-out: GI50, range over panel
RXF393 = assay: SRB 48 h growth assay, Renal RXF393; assay type: cell-based, human
U251 = assay: SRB 48 h growth assay, CNS U251; assay type: cell-based, human
[2] = in vitro anticancer activity, non-small cell lung panel; assay type: cell-based; conditions: Homo sapiens; nine non-small cell lung cancer cell lines, exposure at least 48 h; read-out: GI50, range over panel
OVCAR-4 = assay: SRB 48 h growth assay, Ovarian OVCAR-4; assay type: cell-based, human; conditions: OVCAR-4, Ovarian
HT-29 = assay: SRB 48 h growth assay, Colon HT-29; assay type: cell-based, human; conditions: HT-29, Colon
SK-MEL-2 = assay: SRB 48 h growth assay, Melanoma SK-MEL-2; assay type: cell-based, human; conditions: SK-MEL-2, Melanoma
HOP-62 = assay: SRB 48 h growth assay, Non-small Cell Lung HOP-62; assay type: cell-based, human; conditions: HOP-62, Non-small Cell Lung
786-0 = assay: SRB 48 h growth assay, Renal 786-0; assay type: cell-based, human; conditions: 786-0, Renal
NCI/ADR-RES = assay: SRB 48 h growth assay, Ovarian NCI/ADR-RES; assay type: cell-based, human
SNB-19 = assay: SRB 48 h growth assay, CNS SNB-19; assay type: cell-based, human; conditions: SNB-19, CNS
OVCAR-3 = assay: SRB 48 h growth assay, Ovarian OVCAR-3; assay type: cell-based, human; conditions: Homo sapiens, OVCAR-3, Ovarian
T-47D = assay: SRB 48 h growth assay, Breast T-47D; assay type: cell-based, human
[3] = system: two prostate cancer cell line (PC-3, DU-145); assay: in vitro anticancer activity, prostate panel; assay type: cell-based; conditions: Homo sapiens; two prostate cancer cell lines, exposure at least 48 h; read-out: GI50, range over panel
NCI-H23 = assay: SRB 48 h growth assay, Non-small Cell Lung NCI-H23; assay type: cell-based, human
HOP-92 = assay: SRB 48 h growth assay, Non-small Cell Lung HOP-92; assay type: cell-based, human; conditions: HOP-92, Non-small Cell Lung
[4] = system: six breast cancer cell line (MCF-7, MDA-MB-231/ATCC, HS 578T, TD-47D, MDA-MB-468 and BT-549); assay: in vitro anticancer activity, breast panel; assay type: cell-based; conditions: Homo sapiens; six breast cancer cell lines, exposure at least 48 h; read-out: GI50, range over panel
HS578T = assay: SRB 48 h growth assay, Breast HS578T; assay type: cell-based, human
UACC-257 = assay: SRB 48 h growth assay, Melanoma UACC-257; assay type: cell-based, human; conditions: Homo sapiens, UACC-257, Melanoma
HCC-2998 = assay: SRB 48 h growth assay, Colon HCC-2998; assay type: cell-based, human; conditions: HCC-2998, Colon
[5] = Homo sapiens, read-out: Growth Inhibition GI50
[6] = Homo sapiens, read-out: Log10 GI50 (converted)
[7] = Homo sapiens, read-out: Log10 LC50 (converted)
[8] = read-out: Growth Inhibition GI50
[9] = read-out: Log10 GI50 (converted)

Work on `C#Cc1ccc(-n2c(/C=C/c3ccc4ccccc4c3)nc3ncccc3c2=O)cc1` [4s, (E)-3-(4-Ethynylphenyl)-2-(2-(naphthalen-2-yl)vinyl)pyrido[2,3-d]pyrimidin-4(3H)-one] yielded a GI50 (OVCAR-8; [5]) of 3.05 µM, a GI50 (OVCAR-8; [6]) of 3.02 µM and a CC50 (OVCAR-8; [7]) greater than 100 µM. For the same compound, the “Log10 TGI50” value (OVCAR-8) was greater than −4.00, the “Log10 TGI50” value (CCRF-CEM) was greater than −4.00 and the CC50 (CCRF-CEM; Homo sapiens, CCKF-CEM, read-out: Log10 LC50 (converted)) was greater than 100 µM. The GI50 (CCRF-CEM; [5]) was 1.53 µM, the GI50 (CCRF-CEM; [6]) was 1.51 µM and the “Log10 TGI50” value (KM12) was greater than −4.00. It also gave a GI50 (KM12; [5]) of 2.95 µM, a GI50 (KM12; [6]) of 2.95 µM and a CC50 (KM12; [7]) greater than 100 µM. For the same compound, the GI50 (HCT-116; [8]) was 2.22 µM, the GI50 (HCT-116; [9]) was 2.24 µM and the GI50 (UO-31; [5]) was 3.11 µM. For the same compound, the GI50 (UO-31; [6]) was 3.09 µM, the CC50 (UO-31; [7]) was greater than 100 µM and the “Log10 TGI50” value (UO-31) was greater than −4.00. The GI50 (SK-MEL-28; [5]) was 4.33 µM, the GI50 (SK-MEL-28; [6]) was 4.37 µM and the CC50 (SK-MEL-28; [7]) was greater than 100 µM. For the same compound, the “Log10 TGI50” value (SK-MEL-28) was greater than −4.00, the GI50 [1] was 0.3 to 0.4 µM and the “Log10 TGI50” value (RXF393) was −5.26. For the same compound, the GI50 (RXF393; Homo sapiens, RXF 393, read-out: Growth Inhibition GI50) was 1.79 µM, the GI50 (RXF393; Homo sapiens, RXF 393, read-out: Log10 GI50 (converted)) was 1.78 µM and the CC50 (RXF393; Homo sapiens, RXF 393, read-out: Log10 LC50 (converted)) was 5.5 µM. The “Log10 TGI50” value (U251) was greater than −4.00, the GI50 (U251; Homo sapiens, U-251, read-out: Growth Inhibition GI50) was 3.69 µM and the GI50 (U251; Homo sapiens, U-251, read-out: Log10 GI50 (converted)) was 3.72 µM. For the same compound, the CC50 (U251; Homo sapiens, U-251, read-out: Log10 LC50 (converted)) was greater than 100 µM, the GI50 [2] was 0.18 to 0.7 µM and the GI50 (OVCAR-4; [5]) was 1.95 µM. The GI50 (OVCAR-4; [6]) was 1.95 µM, the CC50 (OVCAR-4; [7]) was greater than 100 µM and the “Log10 TGI50” value (OVCAR-4) was greater than −4.00. The “Log10 TGI50” value (HT-29) was greater than −4.00, the GI50 (HT-29; [5]) was 3.26 µM and the GI50 (HT-29; [6]) was 3.24 µM. It also gave a CC50 (HT-29; [7]) greater than 100 µM, a GI50 (SK-MEL-2; [5]) of 2.41 µM and a GI50 (SK-MEL-2; [6]) of 2.4 µM. The CC50 (SK-MEL-2; [7]) was 6.17 µM, the “Log10 TGI50” value (SK-MEL-2) was −5.21 and the “Log10 TGI50” value (HOP-62) was greater than −4.00. For the same compound, the GI50 (HOP-62; [5]) was 7.45 µM, the GI50 (HOP-62; [6]) was 7.41 µM and the CC50 (HOP-62; [7]) was greater than 100 µM. The “Log10 TGI50” value (786-0) was greater than −4.00, the GI50 (786-0; [5]) was 4.08 µM and the GI50 (786-0; [6]) was 4.07 µM. The CC50 (786-0; [7]) was greater than 100 µM, the “Log10 TGI50” value (NCI/ADR-RES) was greater than −4.00 and the GI50 (NCI/ADR-RES; [5]) was 3.29 µM. It also gave a GI50 (NCI/ADR-RES; [6]) of 3.31 µM, a CC50 (NCI/ADR-RES; [7]) greater than 100 µM and a GI50 (SNB-19; [5]) of 2.95 µM. The CC50 (SNB-19; [7]) was greater than 100 µM, the “Log10 TGI50” value (SNB-19) was greater than −4.00 and the GI50 (OVCAR-3; [8]) was 2.04 µM. For the same compound, the GI50 (OVCAR-3; [9]) was 2.04 µM, the “Log10 TGI50” value (T-47D) was greater than −4.00 and the GI50 (T-47D; Homo sapiens, T47D, read-out: Growth Inhibition GI50) was 3.9 µM. For the same compound, the GI50 (T-47D; Homo sapiens, T47D, read-out: Log10 GI50 (converted)) was 3.89 µM, the CC50 (T-47D; Homo sapiens, T47D, read-out: Log10 LC50 (converted)) was greater than 100 µM and the GI50 [3] was 0.28 to 0.34 µM. The “Log10 TGI50” value (NCI-H23) was greater than −4.00, the GI50 (NCI-H23; [5]) was 6.39 µM and the GI50 (NCI-H23; [6]) was 6.46 µM. For the same compound, the LC50 (NCI-H23; [7]) was greater than 100 µM, the “Log10 TGI50” value (HOP-92) was −5.16 and the GI50 (HOP-92; [5]) was 1.63 µM. For the same compound, the GI50 (HOP-92; [6]) was 1.62 µM, the CC50 (HOP-92; [7]) was 6.92 µM and the GI50 [4] was 0.23 to 0.35 µM. For the same compound, the “Log10 TGI50” value (HS578T) was greater than −4.00, the GI50 (HS578T; Homo sapiens, Hs-578T, read-out: Growth Inhibition GI50) was 7.62 µM and the GI50 (HS578T; Homo sapiens, Hs-578T, read-out: Log10 GI50 (converted)) was 7.59 µM. It also gave a CC50 (HS578T; Homo sapiens, Hs-578T, read-out: Log10 LC50 (converted)) greater than 100 µM, a GI50 (UACC-257; [8]) of 2.11 µM and a GI50 (UACC-257; [9]) of 2.09 µM. For the same compound, the “Log10 TGI50” value (HCC-2998) was −5.30, the GI50 (HCC-2998; [5]) was 2.32 µM and the GI50 (HCC-2998; [6]) was 2.29 µM. For the same compound, the CC50 (HCC-2998; [7]) was 5.01 µM.
